According to ChEMBL document CHEMBL3797156, “(7-Diethylaminocoumarin-4-yl)methyl ester of suberoylanilide hydroxamic acid as a caged inhibitor for photocontrol of histone deacetylase activity” (Bioorg Med Chem, 2016):
Activity calls are given as the source filed them. No cut-off for these calls is given here.

Columns and labels:
[1] = Prodrug conversion in tris buffer assessed as suberoyl anilide hydroxamic acid formation at 200 uM followed 400 to 430 nm irradiation for 10 mins by HPLC analysis; format: ADME
[2] = molecular target: T1, Histone deacetylase (Homo sapiens) (UniProt Q13547+O15379+Q9UBN7+Q92769+Q9UQL6+Q8WUI4+Q9BY41+Q96DB2+P56524+Q9UKV0+Q969S8); assay: Inhibition of human HDAC in HeLa cell nuclear extract in presence of irradiation at 400 to 430 nm for 1 to 10 mins incubated for 60 mins by HDAC-Glo 1/2 reagent based chemiluminescence analysis; format: cell-free
[3] = molecular target: T1, Histone deacetylase (Homo sapiens); assay: Inhibition of human HDAC in HeLa cell nuclear extract for 60 mins by HDAC-Glo 1/2 reagent based chemiluminescence analysis; format: cell-free
HCT-116 = assay: Cytotoxicity against human HCT116 cells assessed as inhibition of cell growth at 10 and 30 uM preincubated for 3 hrs followed irradiation at 400 - 430 nm for 1, 3 and 10 min measured after 48 hrs by CellTiter-Glo assay; format: functional, cell-based

- Drug metabolism [1]: 54 µM
- inhibition [2]: Active
- inhibition [3]: inactive
SMILES: CCN(CC)c1ccc2c(CONC(=O)CCCCCCC(=O)Nc3ccccc3)cc(=O)oc2c1
- Activity (HCT-116): Active
